Converted amounts (≈) assume the structure as drawn.
Legend:
Format in all cases: cell-based
Crypt. neoformans MY1051 [1] = assay: Inhibitor dilution assay in microtiter format, yeast MIC: Crypt. neoformans MY1051; conditions: Cryptococcus neoformans; Crypt. neoformans MY1051, 24 to 48 hours, 35° C.; read-out: Minimum Inhibitory Concentration
Procedure: (§1) The compounds are particularly active towards filamentous fungi and yeasts including Candida albicans and Crypt. neoformans. The sensitivity of filamentous fungi and yeast was determined using inhibitor dilution assays in microtiter format. The compounds were dissolved in DMSO at 2 mg/ml and serially diluted in 0.1 M phosphate buffer, pH 7.0 in the microtiter dish from 100 to 0.006 μg/ml. A standardized spore suspension for testing the filamentous fungi was prepared by inoculating Antibiotic Medium #3 containing 1.5% agar with spores such that 1.5×10^3 colony forming units were added per we11. The microtiter wells were filled with 50 μl of buffer containing compound and 50 μl of inoculated medium. The sensitivity of yeasts was determined by inoculating yeast nitrogen base containing 1% dextrose (YNB/G) with aliquots of an overnight yeast culture grown in Yeast Morphology (YM) media at 35° C. and diluting in YNB/G to yield a final concentration of 1.5-7.5×10^3 colony forming units/well. One hundred fifty μl of inoculated media was added per well. To test the sensitivity of yeast, compound was solubilized in 10 percent aqueous DMSO at 2.56 mg/ml. The compound was diluted serially in YNB/G from 128 to 0.06 μg/ml. The wells were filled with 150 μl of drug containing media. […]

A. niger MF442 = assay: Inhibitor dilution assay in microtiter format, filamentous fungi: A. niger MF442; conditions: Aspergillus niger; A. niger MF442, 42 hours, 28° C.; read-out: Minimum Inhibitory Concentration
Procedure: as §1

Fus. oxysproum MF4014 = assay: Inhibitor dilution assay in microtiter format, filamentous fungi: Fus. oxysproum MF4014; conditions: Fus. oxysproum MF4014, 42 hours, 28° C.; read-out: Minimum Inhibitory Concentration
Procedure: as §1

C. tropialis MY1012 = assay: Minimum fungicidal concentration, yeast: C. tropialis MY1012; conditions: no growth or no more than three colonies
Procedure: as §1

C. parasilosos MY1010 = assay: Minimum fungicidal concentration, yeast: C. parasilosos MY1010; conditions: no growth or no more than three colonies
Procedure: as §1

A. flavus MF383 = assay: Inhibitor dilution assay in microtiter format, filamentous fungi: A. flavus MF383; conditions: Aspergillus flavus; A. flavus MF383, 42 hours, 28° C.; read-out: Minimum Inhibitory Concentration
Procedure: as §1

C. albicans MY1055 [2] = assay: Minimum fungicidal concentration, yeast: C. albicans MY1055; conditions: Candida albicans, no growth or no more than three colonies
Procedure: as §1

A. fumigatus MF4839 = assay: Inhibitor dilution assay in microtiter format, filamentous fungi: A. fumigatus MF4839; conditions: Aspergillus fumigatus; A. fumigatus MF4839, 42 hours, 28° C.; read-out: Minimum Inhibitory Concentration
Procedure: as §1

Pen. italicum MF2819 = assay: Inhibitor dilution assay in microtiter format, filamentous fungi: Pen. italicum MF2819; conditions: Penicillium italicum; Pen. italicum MF2819, 42 hours, 28° C.; read-out: Minimum Inhibitory Concentration
Procedure: as §1

C. albicans MY1055 [3] = assay: Inhibitor dilution assay in microtiter format, yeast MIC: C. albicans MY1055; conditions: Candida albicans; C. albicans MY1055, 24 to 48 hours, 35° C.; read-out: Minimum Inhibitory Concentration
Procedure: as §1

Coch. miyabeanus MF4626 = assay: Inhibitor dilution assay in microtiter format, filamentous fungi: Coch. miyabeanus MF4626; conditions: Bipolaris oryzae, MF4626, 42 h, read-out: Minimum Inhibitory Concentration
Procedure: as §1

C. parapsilosis MY1010 = assay: Inhibitor dilution assay in microtiter format, yeast MIC: C. parapsilosis MY1010; conditions: Lodderomyces parapsilosis; C. parapsilosis MY1010, 24 to 48 hours, 35° C.; read-out: Minimum Inhibitory Concentration
Procedure: as §1

Crypt. neoformans MY1051 [4] = assay: Minimum fungicidal concentration, yeast: Crypt. neoformans MY1051; conditions: Cryptococcus neoformans, no growth or no more than three colonies
Procedure: as §1

C. tropicalis MY1012 = assay: Inhibitor dilution assay in microtiter format, yeast MIC: C. tropicalis MY1012; conditions: Candida tropicalis; C. tropicalis MY1012, 24 to 48 hours, 35° C.; read-out: Minimum Inhibitory Concentration
Procedure: as §1

T. Mentagrophytes MF4864 = assay: Inhibitor dilution assay in microtiter format, filamentous fungi: T. Mentagrophytes MF4864; conditions: Trichophyton mentagrophytes; T. Mentagrophytes MF4864, 42 hours, 28° C.; read-out: Minimum Inhibitory Concentration
Procedure: as §1

MIC (T. Mentagrophytes MF4864) | Structure (SMILES) | MIC (Crypt. neoformans MY1051 [1]) | MIC (A. niger MF442) | MIC (Fus. oxysproum MF4014) | MFC (C. tropialis MY1012) | MFC (C. parasilosos MY1010) | MIC (A. flavus MF383) | MFC (C. albicans MY1055 [2]) | MIC (A. fumigatus MF4839) | MIC (Pen. italicum MF2819) | MIC (C. albicans MY1055 [3]) | MIC (Coch. miyabeanus MF4626) | MIC (C. parapsilosis MY1010) | MFC (Crypt. neoformans MY1051 [4]) | MIC (C. tropicalis MY1012)
– | CC=CCCCCC=CCCCCC(=O)OC1C(O)C2(CCC(C)C(O)C(C)CC=Cc3ccccc3)OC(C(=O)O)C(O)(C(=O)O)C1(C(=O)O)O2 (stereo not shown) [Compound A] | 4 µg/mL (≈ 5.47 µM) | 100 µg/mL (≈ 137 µM) | > 100 µg/mL | 1 µg/mL (≈ 1.37 µM) | 1 µg/mL (≈ 1.37 µM) | 0.098 µg/mL (≈ 0.134 µM) | 4 µg/mL (≈ 5.47 µM) | 0.098 µg/mL (≈ 0.134 µM) | 0.025 µg/mL (≈ 0.0342 µM) | 8 µg/mL (≈ 10.9 µM) | 1.6 µg/mL (≈ 2.19 µM) | 4 µg/mL (≈ 5.47 µM) | 2 µg/mL (≈ 2.74 µM) | 4 µg/mL (≈ 5.47 µM)
> 128 µg/mL | CC=CCCCCC=CCCCCC(=O)OC1C(O)C2(CCC(C)C(O)C(C)CC=Cc3ccccc3)OC(C(=O)OC)C(O)(C(=O)OC)C1(C(=O)OC)O2 (stereo not shown) [Compound B] | > 128 µg/mL | – | – | > 128 µg/mL | > 128 µg/mL | > 128 µg/mL | > 128 µg/mL | > 128 µg/mL | – | > 128 µg/mL | – | > 128 µg/mL | > 128 µg/mL | > 128 µg/mL
